What was measured:
[1] = test system: γδ T cell receptor (TCR); test: Stimulation of iPS-derived T cell progenitors through the γδ T cell receptor, flow cytometry (Example 5); format: cell-based, human; conditions: day 35; HMBPP 0.01 μg/mL to 1 μg/mL or zoledronic acid 5 μmol/L; no marker expression without stimulants; FIG. 11
Description: αMEM medium supplemented with a final concentration of 20% FBS and 1% penicillin/streptomycin was prepared as an OP9 cell culture medium.
OP9 cell culture medium supplemented with a final concentration of 100 mmol/L vitamin C, 10 ng/ML IL-7, 10 μg/mL FLT3 ligand, and 10 μg/mL stem cell factor (SCF) was prepared as a differentiation induction medium.
A dish on which OP9 cells were cultured was prepared as the feeder cells. The OP9 cells were cultured in the OP9 medium. Multiple cell clusters of iPS cells were seeded onto the feeder cells, and stem cell medium containing 10 μmol/L Y27632 was added. The cells were cultured for two days. On the second day, the medium was replaced with the OP9 medium supplemented with vitamin C, and the cells were cultured for an additional 12 days. On days 5, 9, and 13, half of the medium was removed from the dish and replaced with fresh OP9 medium supplemented with vitamin C.
During the 14-day culture, the differentiation of iPS cells into hematopoietic progenitor cells was observed. The cells were confirmed to be positive for CD34 and CD43, which are markers of hematopoietic cells. […]
It was confirmed that CD3 and γδ TCR (Vγ9) were expressed on the surface of the cells. […] In the negative control, where no stimulants were added, no marker expression was detected.

[2] = test system: Human peripheral blood mononuclear cells; test: iPS cell induction from mononuclear cells in PTA-containing medium (Example 1); format: cell-based; conditions: IL-2 added daily
Description: A PTA-containing medium according to Example 1 was prepared using RPMI 1640 medium (Gibco) containing […] of tetrakis-pivaloyloxymethyl-2-(thiazol-2-ylamino) ethylidene-1, 1-bisphosphonate (PTA, Techno Suzuta), 10% fetal bovine serum (Life Technologies), 1.0×10^−5 mol/L 2-mercaptoethanol (Nacalai Tesque), 100 U/mL penicillin, and 100 μg/mL streptomycin (Life Technologies).
Human peripheral blood mononuclear cells were added to the PTA-containing medium according to Example 1, and a medium containing approximately 1×10^6 mononuclear cells was placed into a 24-well plate (Day 1). […] On Day 3, the medium containing cells was collected from the plate, centrifuged, and the supernatant was removed. Then, 2 mL of fresh PTA-containing medium according to Example 1 was added to the cells, and 1 mL of the medium was placed into two wells of a 24-well plate.
On Day 6, the medium containing cells was collected from the plate, centrifuged, and the supernatant was removed. Then, the PTA-containing medium according to Example 1 was added to the cells, and a medium containing 2×10^4 mononuclear cells was placed into a 96-well plate. KLF4, OCT3/4, SOX2, and c-MYC were introduced into the cells using MSRV (Tokiwa Bio). […]
Additionally, genomic DNA was extracted from the iPS cells, and the presence of the recombined Vγ9 gene was analyzed by PCR and electrophoresis. […]

| Compound | CD3 and γδ TCR (Vγ9) expression on the surface of the cells [1] | presence of the recombined Vγ9 gene in the iPS cells by PCR and electrophoresis ([2]; FIG. 3) | colonies of iPS cells on Day 14 ([2]; KLF4, OCT3/4, SOX2, c-MYC introduced using MSRV, MOI 5) |
| --- | --- | --- | --- |
| C/C(=C\COP(=O)(O)OP(=O)(O)O)CO [HMBPP, (E)-4-hydroxy-3-methyl-but-2-enyl pyrophosphate] | expressed |  |  |
| CC(C)(C)C(=O)OCOP(=O)(OCOC(=O)C(C)(C)C)C(CNc1nccs1)P(=O)(OCOC(=O)C(C)(C)C)OCOC(=O)C(C)(C)C [PTA, tetrakis-pivaloyloxymethyl-2-(thiazol-2-ylamino) ethylidene-1,1-bisphosphonate] |  | confirmed to possess a recombined Vγ9 gene with a JP gene | multiple colonies |

From patent US20250354115A1, “METHOD FOR PRODUCING STEM CELLS AND METHOD FOR PRODUCING GAMMA DELTA T CELLS” (I Peace, Inc., priority 2022, published 2025)
